This note sets out measurements from patent US20070265274A1, “4-(4-METHYLPIPERAZIN-1-YLMETHYL)-N-[4-METHYL-3-(4-PYRIDIN-3-YL)PYRIMIDIN-2-YLAMINO)PHENYL]-BENZAMIDE FOR TREATING MUTATED-RET KINASE ASSOCIATED DISEASES” (priority 2002, published 2007).

Read-outs that look alike come from different tables or passages of the source.

For assay [1], the system named is NIH3T3 cells expressing constitutively active RET MEN2A (RETC634 mutation). The note with it: for % of cell decrease: SALT I 500 nM, 9 days. The procedure:
The RETC634 mutation is the most common germline mutation of the RET kinase occurring in 85% of multiple endocrine neoplasias type 2A. The effect of SALT I on growth of NIH3T3 cells stably expressing a constitutively active form of the RET kinase (RETC634 mutation) is investigated.
NIH3T3 cells expressing constitutively active RET MEN2A are allowed to plate overnight in 6-well plates. They are then grown in the presence of 1 or 5% serum with SALT I 500 nM or with a vehicle solvent (control) for 9 days, with media changes every 3 days. Cells are counted after harvesting with EDTA/trypsin solution on day 9 after initiation of treatments.

The subject of another assay is RET/PTC3. The note with it: 100 nM SALT I; 25 min at room temperature; γP32-ATP.
The subject of assay [2] is PLCγ phosphorylation by RET/PTC. The note with it: 250 nM SALT I for 24 h; in comparison with samples without SALT I.
Description: To further explore the effect of SALT I on RET kinase activity, pretreatment with SALT I on PLCγ phosphorylation is examined.
Ret-PTC3 cells are seeded at 10^5 cells/well in 6-well Corning plates. After 3 days, cells are treated with or without doxycycline in the presence of 250 nM of SALT I for 24 h. Cells are rinsed twice with cold (phosphate buffered saline) PBS containing 0.1 mM sodium orthovanadate, and left for 20 minutes in ice-cold RIPA buffer shaking gently at 4° C. Cell lysates are collected by centrifugation at 10,600 g for 20 min at 4° C. Protein assays are performed on aliquots of supernatants by the Coomassie Blue assay (Pierce, Rockford, Ill.). Western blot analysis are performed by running 100 μg of protein on SDS PAGE (5%), transfer to nitrocellulose membrane and probing initially with anti-phospho PLCγ antibody (Cell Signaling) and then with anti-PLCγ (Cell Signaling) for normalization.

Description for RET/PTC3: Cell Line: PCCL3, a rat thyroid cell line, is maintained in H4 complete medium consisting of Coon's medium/F12 high zinc supplemented with 5% FBS, 0.3 mg/ml L-glutamine, 1 mU/ml TSH, 10 μg/ml insulin, 5 μg/ml apo-transferrin, 10 nM hydrocortisone, and penicillin/streptomycin. […] Stable transfections are performed first to establish clonal lines constitutively expressing the transactivator rtTA (composed of a fusion of the rtetR DNA binding domain and the VP16 activation domain). Individual rtTA-expressing clones are then explored for doxycyclin-inducible expression by transient transfection with a luciferase reporter construct under control of a tet-operator.
Confluent T-75 flasks of RET/PTC3 (PCCL3) cells incubated with or without doxycycline for 24 hours are washed with ice cold PBS containing 0.2 mM sodium ortho-vanadate. […] After the second wash, the reactions are boiled in 35 μl Laemmli buffer for 10 min, the proteins are subjected to SDS-PAGE (7.5%) and their phosphorylation measured by PhosphoImager densitrometry (Molecular Dynamics, Sunnyvale, Calif.) after transfer to nitrocellulose membranes. Protein loading is then normalized to total RET kinase protein determined by Western blot analysis using either the goat polyclonal anti-RET kinase antibody (Santa Cruz) or a mouse monoclonal (University of Cincinnati).

Turning to `CS(=O)(=O)O.Cc1ccc(NC(=O)c2ccc(CN3CCN(C)CC3)cc2)cc1Nc1nccc(-c2cccnc2)n1` [SALT I], the figures for the “% of cell decrease” value in assay [1] (1% serum) and in assay [1] (5% serum) were 42% and 15%, respectively. Further, in assay [1] (result in words), the “growth of RET kinase-transformed NIH3T3 fibroblasts” value was “inhibits the growth”. Besides, in the assay on RET/PTC3, the “inhibition of autophosphorylation of RET/PTC3” value was 40%. Besides, the “inhibition of phosphorylation of PLCγ” value in assay [2] came out at 28%.
